The assay deals with T1, human Nav1.8 (Homo sapiens, UniProt Q9Y5Y9).
T1 construct: expressed in transfected cells
T1 sequence (Q9Y5Y9 whole entry): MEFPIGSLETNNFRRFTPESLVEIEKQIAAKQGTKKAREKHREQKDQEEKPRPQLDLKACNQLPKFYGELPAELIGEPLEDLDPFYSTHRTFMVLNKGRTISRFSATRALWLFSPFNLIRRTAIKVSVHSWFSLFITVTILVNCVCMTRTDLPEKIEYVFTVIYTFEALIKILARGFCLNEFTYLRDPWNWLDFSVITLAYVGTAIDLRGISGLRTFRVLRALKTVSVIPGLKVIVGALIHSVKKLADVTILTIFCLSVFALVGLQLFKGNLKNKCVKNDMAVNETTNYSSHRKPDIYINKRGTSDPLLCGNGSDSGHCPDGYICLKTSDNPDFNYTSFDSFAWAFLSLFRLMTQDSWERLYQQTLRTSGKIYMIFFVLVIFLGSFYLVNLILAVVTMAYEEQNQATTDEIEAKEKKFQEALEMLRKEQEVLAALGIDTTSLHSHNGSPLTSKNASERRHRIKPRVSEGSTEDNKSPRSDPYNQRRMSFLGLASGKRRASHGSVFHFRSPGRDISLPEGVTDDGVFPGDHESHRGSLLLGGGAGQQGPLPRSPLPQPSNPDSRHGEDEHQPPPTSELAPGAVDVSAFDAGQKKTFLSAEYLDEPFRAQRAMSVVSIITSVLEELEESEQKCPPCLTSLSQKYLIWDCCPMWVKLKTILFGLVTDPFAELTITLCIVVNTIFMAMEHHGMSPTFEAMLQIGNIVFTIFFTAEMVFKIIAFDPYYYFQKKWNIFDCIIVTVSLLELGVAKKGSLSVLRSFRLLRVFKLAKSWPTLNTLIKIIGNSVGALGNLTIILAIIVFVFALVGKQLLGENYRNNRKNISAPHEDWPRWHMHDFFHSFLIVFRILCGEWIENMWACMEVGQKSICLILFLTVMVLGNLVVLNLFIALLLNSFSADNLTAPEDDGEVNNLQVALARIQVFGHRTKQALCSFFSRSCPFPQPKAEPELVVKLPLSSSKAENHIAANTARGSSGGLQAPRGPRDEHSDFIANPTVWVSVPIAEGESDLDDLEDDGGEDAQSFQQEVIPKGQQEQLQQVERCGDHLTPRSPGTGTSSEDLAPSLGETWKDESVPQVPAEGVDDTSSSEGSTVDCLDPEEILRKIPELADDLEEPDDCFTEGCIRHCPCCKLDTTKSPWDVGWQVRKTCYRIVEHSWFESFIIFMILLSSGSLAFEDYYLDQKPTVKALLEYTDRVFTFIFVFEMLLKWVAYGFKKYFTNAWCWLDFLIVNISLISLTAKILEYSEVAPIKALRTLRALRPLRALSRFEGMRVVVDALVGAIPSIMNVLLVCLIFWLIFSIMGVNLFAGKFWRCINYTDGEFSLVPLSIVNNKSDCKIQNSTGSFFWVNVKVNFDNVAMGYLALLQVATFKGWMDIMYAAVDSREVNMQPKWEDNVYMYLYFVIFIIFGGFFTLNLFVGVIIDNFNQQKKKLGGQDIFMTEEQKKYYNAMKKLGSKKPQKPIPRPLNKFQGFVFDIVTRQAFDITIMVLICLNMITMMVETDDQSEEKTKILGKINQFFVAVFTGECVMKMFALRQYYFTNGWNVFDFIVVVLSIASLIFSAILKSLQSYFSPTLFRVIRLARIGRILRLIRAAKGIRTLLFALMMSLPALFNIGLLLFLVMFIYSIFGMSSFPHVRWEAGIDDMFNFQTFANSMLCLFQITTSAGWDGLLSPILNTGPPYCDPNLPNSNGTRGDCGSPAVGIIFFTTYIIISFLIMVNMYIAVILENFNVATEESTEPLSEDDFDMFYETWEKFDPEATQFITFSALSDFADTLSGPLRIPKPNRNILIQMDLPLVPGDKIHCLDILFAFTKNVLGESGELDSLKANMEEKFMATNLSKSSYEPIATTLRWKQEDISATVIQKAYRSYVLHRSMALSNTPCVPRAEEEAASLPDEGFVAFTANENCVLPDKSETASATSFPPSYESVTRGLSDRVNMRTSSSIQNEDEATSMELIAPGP
Kind of assay: Qube® automated patch-clamp assay, Nav1.8. The assay is classed as cell-based. To be noted: human Nav1.8 stably expressed in HEK 293 cells; whole-cell voltage clamp, room temperature; read-out: IC50 values (nM) for Examples in the Nav1.8 Qube® Assay. The method, then:
Compounds were tested on human Nav1.8 and Nav1.5 channels stably expressed in human embryo kidney (HEK) 293 cells. Sodium current measurements on Qube® were conducted as follows: automated 384-well patch-clamp assays on the Qube® platform (Sophion Biosciences) were used to measure the inhibition of sodium flow through human Nav1.8 and Nav1.5 channels. Whole-cell voltage-clamp recordings were performed in QChips® (Sophion Biosciences) at room temperature. Nav1.8 current measurements on Qube® were obtained as follows: Nav1.8 currents were elicited with a 10 second 1 Hertz (Hz) pulse train from a holding potential of −90 millivolts (mV), delivered to the cells once per minute in the control condition (DMSO only) and after compound addition. The 1 hertz pulse train stimulation consisted of ten test pulses to 10 millivolt (mV) for 20 milliseconds (ms), each of which was followed by a 980 millisecond repolarization to −67 millivolts. At the end of the 10 second pulse train stimulation, a 5 second hyperpolarization step to −100 millivolt (mV) was used to recover Nav1.8 from fast inactivation. The peak currents elicited by the 1st and 10th test pulses were used to determine IC50 values for resting inhibition and inactivated state inhibition. Nav1.5 current measurements on Qube® were obtained as follows: Nav1.5 currents were elicited with a 20 second 3 Hertz pulse train in the control condition (DMSO only) and after compound addition. The pulse train consisted of sixty 20 millisecond test pulses to 0 millivolt from a holding potential of −80 millivolt (mV). The average peak currents elicited by the last 3 test pulses were used to determine IC50 values for Nav1.5 inhibition.
The following buffers were used for the Qube® recordings: External buffer for Nav1.8 Qube® recording: 150 NaCl, 2 CaCl2, 5 KCl, 1 Mg Cl2, 10 HEPES, 12 Dextrose; External buffer for Qube® Nav1.5 recording: 120 N-Methyl-D-Glucamine, 40 NaCl, 1 KCl, 2.7 CaCl2, 5 HEPES, 0.5 MgCl2; and Internal buffer for Qube® recording: 120 CsF, 30 CsCl, 10 EGTA, 5 HEPES, 5 NaF, 2 MgCl2.
For all Qube® experiments offline analysis was used to determine percent inhibition as a function of drug concentration. IC50 values were determined by fitting to the Hill equation.
`N#Cc1ccc(C(NC(=O)[C@@H]2CNC(=O)C2)c2ccc(F)c(Cl)c2)cc1` (single isomer, unassigned) [Example 13B, (S)-N-((R or S)-(3-chloro-4-fluorophenyl)(4-cyanophenyl)methyl)-5-oxopyrrolidine-3-carboxamide]: the half-inhibitory concentration (IC50) amounted to 129 nM.

In the case of `O=C1C[C@H](C(=O)NC(c2ccc(Cl)cc2)c2ccc(F)c(Cl)c2)CN1` (mixture of isomers) [Example 1B, (S—N—((R and S)-(3-chloro-4-fluorophenyl)(4-chlorophenyl)methyl)-5-oxopyrrolidine-3-carboxamide], the IC50 came out at 13 nM.

Consider `O=C1C[C@H](C(=O)NC(c2ccc(C(F)(F)F)cc2)c2ccc(F)c(Cl)c2)CN1` (single isomer, unassigned) [Example 17, (S—N—((R or S)-(3-chloro-4-fluorophenyl)(4-(trifluoromethyl)phenyl)methyl)-5-oxopyrrolidine-3-carboxamide], for which the IC50 turned out to be 11 nM.

Consider `O=C1C[C@H](C(=O)NC(c2ccc(Cl)cc2)c2ccc(OC(F)(F)F)cc2)CN1` (single isomer, unassigned) [Example 12B, (S)-N-((R or S)-(4-chlorophenyl)(4-(trifluoromethoxy)phenyl)methyl)-5-oxopyrrolidine-3-carboxamide], for which the IC50 came out at 4.1 nM.

As to `O=C1C[C@H](C(=O)NC(c2ccc(F)c(Cl)c2F)[C@H]2C[C@H](C(F)(F)F)C2)CN1` (single isomer, unassigned) [Example 16, (S—N—((R or S)-(3-chloro-2,4-difluorophenyl)((trans)-3-(trifluoromethyl)cyclobutyl)methyl)-5-oxopyrrolidine-3-carboxamide], the IC50 is 46 nM.

Consider `COc1cc(Cl)ccc1C(NC(=O)[C@@H]1CNC(=O)C1)c1ccc(Cl)cc1` (stereo partly drawn) [Example 5, (3S)-N-((4-chloro-2-methoxyphenyl)(4-chlorophenyl)methyl)-5-oxopyrrolidine-3-carboxamide], for which the IC50 was 11 nM.

Regarding `O=C1C[C@H](C(=O)NC(c2ccc(Cl)cc2)c2ccc(C3CC3)cc2)CN1` (stereo partly drawn) [Example 3, (3S)-N-((4-chlorophenyl)(4-cyclopropylphenyl)methyl)-5-oxopyrrolidine-3-carboxamide], the IC50 is 186 nM.

In the case of `O=C1C[C@H](C(=O)NC(c2ccc(OC(F)(F)F)cc2)c2cccc(Cl)c2)CN1` (single isomer, unassigned) [Example 19B, (S)-N-((R or S)-(3-chlorophenyl)(4-(trifluoromethoxy)phenyl)methyl)-5-oxopyrrolidine-3-carboxamide], the IC50 turned out to be 17 nM.

Consider `O=C1C[C@H](C(=O)NC(c2ccc(Cl)cc2)c2cccc(OC(F)(F)F)c2)CN1` (stereo partly drawn) [Example 10, (3S)-N-((4-chlorophenyl)(3-(trifluoromethoxy)phenyl)methyl)-5-oxopyrrolidine-3-carboxamide], for which the IC50 turned out to be 52 nM.

For `O=C1C[C@H](C(=O)NC(COc2ccccc2)c2ccc(F)c(C(F)(F)F)c2)CN1` (stereo partly drawn) [Example 25, (3S)-N-(1-(4-fluoro-3-(trifluoromethyl)phenyl)-2-phenoxyethyl)-5-oxopyrrolidine-3-carboxamide], the IC50 was found to be 53 nM.

Regarding `CC1C(=O)NCC1C(=O)NC(c1ccc(Cl)cc1)c1ccc(Cl)cc1` (single isomer, unassigned) [Example 27C, (3(R or S),4(R or S)—N-(bis(4-chlorophenyl)methyl)-4-methyl-5-oxopyrrolidine-3-carboxamide], the IC50 is 3480 nM.

With `O=C1C[C@H](C(=O)NC(c2ccc(Cl)cc2)c2ccc(F)c(C(F)(F)F)c2)CN1` (single isomer, unassigned) [Example 11B, (S)-N-((R or S)-(4-chlorophenyl)(4-fluoro-3-(trifluoromethyl)phenyl)methyl)-5-oxopyrrolidine-3-carboxamide], the IC50 came to 17 nM.

Consider `O=C1C[C@H](C(=O)NC(c2ccc(F)c(Cl)c2)c2ccc(Cl)c(C(F)(F)F)n2)CN1` (single isomer, unassigned) [Example 20A, (S)-N-((R or S)-(3-chloro-4-fluorophenyl)(5-chloro-6-(trifluoromethyl)-pyridin-2-yl)methyl)-5-oxopyrrolidine-3-carboxamide], for which the IC50 came to 51 nM.

`O=C1C[C@H](C(=O)NC(c2ccc(Cl)cc2)c2ccc(OC(F)(F)F)cc2)CN1` (single isomer, unassigned) [Example 12A, (S)-N-((R or S)-(4-chlorophenyl)(4-(trifluoromethoxy)phenyl)methyl)-5-oxopyrrolidine-3-carboxamide]: the IC50 was 28 nM.

As for `N#Cc1cccc(C(NC(=O)[C@@H]2CNC(=O)C2)c2cccc(Cl)c2)c1` (stereo partly drawn) [Example 2, (3S)-N-((3-chlorophenyl)(3-cyanophenyl)methyl)-5-oxopyrrolidine-3-carboxamide], the IC50 amounted to 820 nM.

As to `O=C1C[C@H](C(=O)NC(c2cccc(Cl)c2)c2cccc(OC(F)F)c2)CN1` (stereo partly drawn) [Example 6, (3S)-N-((3-chlorophenyl)(3-(difluoromethoxy)phenyl)methyl)-5-oxopyrrolidine-3-carboxamide], the IC50 is 520 nM.

In the case of `O=C1C[C@H](C(=O)NC(c2ccc(Cl)cc2)c2ccc(Cl)c(C(F)(F)F)c2)CN1` (single isomer, unassigned) [Example 14B, (S—N—((R or S)-(4-chloro-3-(trifluoro-methyl)phenyl)(4-chlorophenyl)methyl)-5-oxopyrrolidine-3-carboxamide], the IC50 worked out at 9.4 nM.

Turning to `O=C1C[C@H](C(=O)NC(c2ccc(F)c(C(F)(F)F)c2)c2csc(C(F)(F)F)n2)CN1` (stereo partly drawn) [Example 23, (3S)-N-((4-fluoro-3-(trifluoromethyl)phenyl)(2-(trifluoromethyl)thiazol-4-yl)methyl)-5-oxopyrrolidine-3-carboxamide], the IC50 stood at 92 nM.

As for `N#Cc1ccc(C(NC(=O)[C@@H]2CNC(=O)C2)c2ccc(F)c(Cl)c2)cc1` (single isomer, unassigned) [Example 13A, (S)-N-((R or S)-(3-chloro-4-fluorophenyl)(4-cyanophenyl)methyl)-5-oxopyrrolidine-3-carboxamide], the IC50 came out at 139 nM.

On to `O=C1C[C@H](C(=O)NC(c2ccc(Cl)cc2)c2ccc(Cl)c(C(F)(F)F)c2)CN1` (single isomer, unassigned) [Example 14A, (S—N—((R or S)-(4-chloro-3-(trifluoromethyl)phenyl)(4-chlorophenyl)methyl)-5-oxopyrrolidine-3-carboxamide], for which the IC50 worked out at 1.2 nM.

`CC1(C)CC(C(NC(=O)[C@@H]2CNC(=O)C2)c2ccc(F)c(Cl)c2F)C1` (single isomer, unassigned) [Example 21A, (S—N—((R or S)-(3-chloro-2,4-difluorophenyl)(3,3-dimethylcyclobutyl)methyl)-5-oxopyrrolidine-3-carboxamide]: the concentration for half-maximal inhibition (IC50) was found to be 2220 nM.

In the case of `N#Cc1cc(C(NC(=O)[C@@H]2CNC(=O)C2)c2ccc(F)c(Cl)c2)ccc1F` (stereo partly drawn) [Example 22, (3S)—N-((3-chloro-4-fluorophenyl)(3-cyano-4-fluorophenyl)methyl)-5-oxopyrrolidine-3-carboxamide], the IC50 stood at 32 nM.

Regarding `O=C1C[C@H](C(=O)NC(c2cnc(C(F)(F)F)c(Cl)c2)c2ccc(F)c(Cl)c2F)CN1` (single isomer, unassigned) [Example 15, (S—N—((R or S)-(3-chloro-2,4-difluorophenyl)(5-chloro-6-(trifluoromethyl)pyridin-3-yl)methyl)-5-oxopyrrolidine-3-carboxamide], the IC50 was 4.2 nM.

`CC1C(=O)NCC1C(=O)NC(c1ccc(Cl)cc1)c1ccc(Cl)cc1` (single isomer, unassigned) [Example 27B, (3(R or S),4(R or S)—N-(bis(4-chlorophenyl)methyl)-4-methyl-5-oxopyrrolidine-3-carboxamide]: the IC50 was found to be 277 nM.

In the case of `O=C1C[C@H](C(=O)NC(c2ccc(Cl)cc2)c2ccc(F)c(Cl)c2)CN1` (single isomer, unassigned) [Example 1A, (S—N—((R or S)-(3-chloro-4-fluorophenyl)(4-chlorophenyl)methyl)-5-oxopyrrolidine-3-carboxamide], the IC50 is 3.4 nM.

Consider `O=C1C[C@H](C(=O)NC(c2ccc(C(F)(F)F)cc2)c2cccc(C(F)(F)F)c2)CN1` (stereo partly drawn) [Example 8, (3S)-5-oxo-N-((3-(trifluoromethyl)phenyl)(4-(trifluoromethyl)phenyl)methyl)pyrrolidine-3-carboxamide], for which the IC50 turned out to be 19 nM.

With `CC1C(=O)NCC1C(=O)NC(c1ccc(Cl)cc1)c1ccc(Cl)cc1` (single isomer, unassigned) [Example 27D, (3(R or S),4(R or S)—N-(bis(4-chlorophenyl)methyl)-4-methyl-5-oxopyrrolidine-3-carboxamide], the IC50 worked out at 7650 nM.

The term IC50 denotes the concentration needed to halve the response being measured.

Values taken from patent US20230227405A1, “5-OXOPYRROLIDINE-3-CARBOXAMIDES AS NAV1.8 INHIBITORS” (MERCK SHARP & DOHME CORP., priority 2020, published 2023).
